Measurements published in ChEMBL document CHEMBL1201861, “Genomics of Drug Sensitity in Cancer screening data, Wellcome Trust Sanger Institute”.

How the values were obtained:
Assay in all cases: cells
Details in all cases: Homo sapiens
NOMO-1 = type: functional, cell-based;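 further: growth inhibition of human NOMO-1 cells measured by a cell viability assay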
Description: SANGER: Inhibition of human NOMO-1 cell growth in a cell viability assay.

LXF-289 cell line = type: functional, cell-based
Description: SANGER: Inhibition of human LXF-289 cell growth in a cell viability assay.

LNCaP-Clone-FGC = type: functional, cell-based
Description: SANGER: Inhibition of human LNCaP-Clone-FGC cell growth in a cell viability assay.

8-MG-BA = type: functional, cell-based;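 further: growth inhibition of 8-MG-BA cells, read out with a cell viability assay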
Description: SANGER: Inhibition of human 8-MG-BA cell growth in a cell viability assay.

OMC-1 = type: functional, cell-based;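 further: growth inhibition of the OMC-1 cell line, measured by a cell viability assay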
Description: SANGER: Inhibition of human OMC-1 cell growth in a cell viability assay.

Mo = type: functional, cell-based
Description: SANGER: Inhibition of human Mo-T cell growth in a cell viability assay.

SK-NEP-1 = type: functional, cell-based;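 further: growth inhibition of human SK-NEP-1 cells, read out by a cell viability assay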
Description: SANGER: Inhibition of human SK-NEP-1 cell growth in a cell viability assay.

KARPAS-45 = type: functional, cell-based;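 further: inhibition of cell line growth, read out through a viability assay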
Description: SANGER: Inhibition of human KARPAS-45 cell growth in a cell viability assay.

LS-1034 = type: functional, cell-based
Description: SANGER: Inhibition of human LS-1034 cell growth in a cell viability assay.

DOHH-2 = type: functional, cell-based;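 further: growth inhibition of human DOHH-2 cells, read out with a cell viability assay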
Description: SANGER: Inhibition of human DOHH-2 cell growth in a cell viability assay.

HC-1 = type: functional, cell-based;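 further: growth inhibition of HC-1 cells measured by a cell viability assay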
Description: SANGER: Inhibition of human HC-1 cell growth in a cell viability assay.

KARPAS-299 = type: functional, cell-based
Description: SANGER: Inhibition of human KARPAS-299 cell growth in a cell viability assay.

MHH-NB-11 = type: functional, cell-based;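 further: growth inhibition of human MHH-NB-11 cells, read out by a cell viability assay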
Description: SANGER: Inhibition of human MHH-NB-11 cell growth in a cell viability assay.

RPMI-8866 = type: functional, cell-based
Description: SANGER: Inhibition of human RPMI-8866 cell growth in a cell viability assay.

COLO-668 = type: functional, cell-based
Description: SANGER: Inhibition of human COLO-668 cell growth in a cell viability assay.

D-502MG = type: functional, cell-based
Description: SANGER: Inhibition of human D-502MG cell growth in a cell viability assay.

C8166 = type: functional, cell-based;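 further: growth inhibition of human C8166 cells measured by a cell viability assay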
Description: SANGER: Inhibition of human C8166 cell growth in a cell viability assay.

HCE-T = type: functional, cell-based;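 further: cell viability assay read-out, reporting inhibition of HCE-T cell growth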
Description: SANGER: Inhibition of human HCE-T cell growth in a cell viability assay.

HuTu80 = type: functional, cell-based, HUTU-80;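 further: growth inhibition of HuTu80 human cells, determined with a cell viability readout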
Description: SANGER: Inhibition of human HUTU-80 cell growth in a cell viability assay.

GCIY = type: functional, cell-based;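 further: growth inhibition of the human GCIY cell line, read out by a cell viability assay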
Description: SANGER: Inhibition of human GCIY cell growth in a cell viability assay.

CW-2 = type: functional, cell-based;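 further: growth inhibition of CW-2 cells, read out by a cell viability assay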
Description: SANGER: Inhibition of human CW-2 cell growth in a cell viability assay.

LS-513 = type: functional, cell-based
Description: SANGER: Inhibition of human LS-513 cell growth in a cell viability assay.

MHH-PREB-1 = type: functional, cell-based;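 further: cell viability assay measuring inhibition of proliferation of human MHH-PREB-1 cells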
Description: SANGER: Inhibition of human MHH-PREB-1 cell growth in a cell viability assay.

DJM-1 = type: functional, cell-based;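 further: growth inhibition of human DJM-1 cells, read out by a cell viability assay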
Description: SANGER: Inhibition of human DJM-1 cell growth in a cell viability assay.

HCC2218 = type: functional, cell-based;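 further: cell viability assay read-out, with IC50 given as the concentration that inhibits growth of the cell line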
Description: SANGER: Inhibition of human HCC2218 cell growth in a cell viability assay.

SF-126 = type: functional, cell-based;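 further: growth inhibition of human SF126 cells, read out with a cell viability assay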
Description: SANGER: Inhibition of human SF126 cell growth in a cell viability assay.

SW 962 = type: functional, cell-based;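 further: growth inhibition of human SW962 cells, read out by a cell viability assay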
Description: SANGER: Inhibition of human SW962 cell growth in a cell viability assay.

Lu-65 = type: functional, cell-based;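 further: growth inhibition of Lu-65 cancer cells, read out by a cell viability assay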
Description: SANGER: Inhibition of human LU-65 cell growth in a cell viability assay.

KMOE-2 = type: functional, cell-based;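 further: growth inhibition of human KMOE-2 cells, read out with a cell viability assay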
Description: SANGER: Inhibition of human KMOE-2 cell growth in a cell viability assay.

KY821 = type: functional, cell-based;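 further: growth inhibition of human KY821 cells, read out by a cell viability assay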
Description: SANGER: Inhibition of human KY821 cell growth in a cell viability assay.

ES5 = type: functional, cell-based;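 further: growth inhibition of human ES5 cells, read out by a cell viability assay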
Description: SANGER: Inhibition of human ES5 cell growth in a cell viability assay.

KINGS-1 = type: functional, cell-based;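 further: cell viability assay measuring suppression of KINGS-1 cell growth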
Description: SANGER: Inhibition of human KINGS-1 cell growth in a cell viability assay.

LAN-6 = type: functional, cell-based;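 further: growth inhibition of LAN-6 cells, determined with a cell viability assay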
Description: SANGER: Inhibition of human LAN-6 cell growth in a cell viability assay.

NB6 = type: functional, cell-based;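 further: growth inhibition of NB6 cells, read out by a cell viability assay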
Description: SANGER: Inhibition of human NB6 cell growth in a cell viability assay.

TK-10 = type: functional, cell-based;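 further: growth inhibition of TK-10 cells, read out in a cell viability assay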
Description: SANGER: Inhibition of human TK10 cell growth in a cell viability assay.

SK-LMS-1 = type: functional, cell-based;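 further: growth inhibition of human SK-LMS-1 cells, read out with a cell viability assay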
Description: SANGER: Inhibition of human SK-LMS-1 cell growth in a cell viability assay.

Ramos-2G6-4C10 = type: functional, cell-based;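 further: growth inhibition of the cell line, measured by a cell viability read-out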
Description: SANGER: Inhibition of human Ramos-2G6-4C10 cell growth in a cell viability assay.

NCI-H69 = type: functional, cell-based;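 further: growth inhibition of the cell line, read out with a cell viability assay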
Description: SANGER: Inhibition of human NCI-H69 cell growth in a cell viability assay.

KURAMOCHI = type: functional, cell-based;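 further: growth inhibition of KURAMOCHI cells, read out with a cell viability assay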
Description: SANGER: Inhibition of human KURAMOCHI cell growth in a cell viability assay.

EW-1 = type: functional, cell-based;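 further: growth inhibition of the human EW-1 cell line, read out by a cell viability assay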
Description: SANGER: Inhibition of human EW-1 cell growth in a cell viability assay.

QIMR-WIL = type: functional, cell-based;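 further: growth inhibition of QIMR-WIL cells, read out with a cell viability assay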
Description: SANGER: Inhibition of human QIMR-WIL cell growth in a cell viability assay.

NCI-H747 = type: functional, cell-based;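 further: growth inhibition of human NCI-H747 cells, read out by a cell viability assay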
Description: SANGER: Inhibition of human NCI-H747 cell growth in a cell viability assay.

P30-OHK = type: functional, cell-based;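 further: growth inhibition of the P30-OHK cell line, read out with a cell viability assay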
Description: SANGER: Inhibition of human P30-OHK cell growth in a cell viability assay.

EKVX = type: functional, cell-based;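 further: growth inhibition of human EKVX cells, read out with a cell viability assay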
Description: SANGER: Inhibition of human EKVX cell growth in a cell viability assay.

NCI-H1155 = type: functional, cell-based;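 further: cell growth inhibition measured by a viability assay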
Description: SANGER: Inhibition of human NCI-H1155 cell growth in a cell viability assay.

SNU1 = type: functional, cell-based;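 further: growth inhibition of human NCI-SNU-1 cells, measured with a cell viability assay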
Description: SANGER: Inhibition of human NCI-SNU-1 cell growth in a cell viability assay.

MLMA = type: functional, cell-based;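 further: growth inhibition of MLMA cells (human), determined through a cell viability readout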
Description: SANGER: Inhibition of human MLMA cell growth in a cell viability assay.

HH = type: functional, cell-based
Description: SANGER: Inhibition of human HH cell growth in a cell viability assay.

U-87 MG = type: functional, cell-based, U-87MG ATCC;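 further: growth inhibition of the cells measured with a viability assay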
Description: SANGER: Inhibition of human U-87-MG cell growth in a cell viability assay.

HOP-62 = type: functional, cell-based;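 further: cell growth inhibition determined with a viability assay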
Description: SANGER: Inhibition of human HOP-62 cell growth in a cell viability assay.

ONS-76 = type: functional, cell-based;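 further: growth inhibition of human ONS-76 cells, read out with a cell viability assay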
Description: SANGER: Inhibition of human ONS-76 cell growth in a cell viability assay.

NEC8 = type: functional, cell-based;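 further: growth inhibition of human NEC8 cells, read out by a cell viability assay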
Description: SANGER: Inhibition of human NEC8 cell growth in a cell viability assay.

MSTO-211H = type: functional, cell-based
Description: SANGER: Inhibition of human MSTO-211H cell growth in a cell viability assay.

BB30-HNC = type: functional, cell-based;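 further: growth inhibition of the cultured cell line, read out by a cell viability assay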
Description: SANGER: Inhibition of human BB30-HNC cell growth in a cell viability assay.

NOS-1 = type: functional, cell-based;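 further: growth inhibition of the human NOS-1 cell line, read out with a cell viability assay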
Description: SANGER: Inhibition of human NOS-1 cell growth in a cell viability assay.

LU-134-A = type: functional, cell-based
Description: SANGER: Inhibition of human LU-134-A cell growth in a cell viability assay.

TE-8 = type: functional, cell-based;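 further: growth inhibition of TE-8 cells, measured with a cell viability readout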
Description: SANGER: Inhibition of human TE-8 cell growth in a cell viability assay.

CCRF-CEM = type: functional, cell-based;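 further: inhibition of CCRF-CEM cell growth, measured by a cell viability assay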
Description: SANGER: Inhibition of human CCRF-CEM cell growth in a cell viability assay.

KS-1 = type: functional, cell-based;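 further: growth inhibition of KS-1 cells, read out with a cell viability assay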
Description: SANGER: Inhibition of human KS-1 cell growth in a cell viability assay.

Molecule `CCn1c(-c2nonc2N)nc2cnc(Oc3cccc(NC(=O)c4ccc(OCCN5CCOCC5)cc4)c3)cc21` [GSK-269962A] has an IC50 (NOMO-1) of over 2.5 µM, an IC50 (LXF-289 cell line) of over 2.5 µM and an IC50 (LNCaP-Clone-FGC) of over 2.5 µM. The IC50 (8-MG-BA) was over 2.5 µM, the IC50 (OMC-1) was over 2.5 µM and the IC50 (Mo) was over 2.5 µM. For the same molecule, the IC50 (SK-NEP-1) was over 2.5 µM, the IC50 (KARPAS-45) was over 2.5 µM and the IC50 (LS-1034) was over 2.5 µM. It also gave an IC50 (DOHH-2) of over 2.5 µM, an IC50 (HC-1) of over 2.5 µM and an IC50 (KARPAS-299) of over 2.5 µM. It also gave an IC50 (MHH-NB-11) of 0.0669 µM, an IC50 (RPMI-8866) of over 2.5 µM and an IC50 (COLO-668) of over 2.5 µM. For the same molecule, the IC50 (D-502MG) was over 2.5 µM, the IC50 (C8166) was over 2.5 µM and the IC50 (HCE-T) was over 2.5 µM. For the same molecule, the IC50 (HuTu80) was over 2.5 µM, the IC50 (GCIY) was over 2.5 µM and the IC50 (CW-2) was over 2.5 µM. The IC50 (LS-513) was over 2.5 µM, the IC50 (MHH-PREB-1) was over 2.5 µM and the IC50 (DJM-1) was over 2.5 µM. The IC50 (HCC2218) was over 2.5 µM, the IC50 (SF-126) was over 2.5 µM and the IC50 (SW 962) was over 2.5 µM. The IC50 (Lu-65) was over 2.5 µM, the IC50 (KMOE-2) was over 2.5 µM and the IC50 (KY821) was over 2.5 µM. For the same molecule, the IC50 (ES5) was over 2.5 µM, the IC50 (KINGS-1) was over 2.5 µM and the IC50 (LAN-6) was over 2.5 µM. For the same molecule, the IC50 (NB6) was 0.591 µM, the IC50 (TK-10) was over 2.5 µM and the IC50 (SK-LMS-1) was over 2.5 µM. The IC50 (Ramos-2G6-4C10) was 1.36 µM, the IC50 (NCI-H69) was over 2.5 µM and the IC50 (KURAMOCHI) was over 2.5 µM. It also gave an IC50 (EW-1) of over 2.5 µM, an IC50 (QIMR-WIL) of 0.49 µM and an IC50 (NCI-H747) of over 2.5 µM. It also gave an IC50 (P30-OHK) of over 2.5 µM, an IC50 (EKVX) of over 2.5 µM and an IC50 (NCI-H1155) of over 2.5 µM. It also gave an IC50 (SNU1) of over 2.5 µM, an IC50 (MLMA) of over 2.5 µM and an IC50 (HH) of over 2.5 µM. The IC50 (U-87 MG) was over 2.5 µM, the IC50 (HOP-62) was over 2.5 µM and the IC50 (ONS-76) was over 2.5 µM. The IC50 (NEC8) was over 2.5 µM, the IC50 (MSTO-211H) was over 2.5 µM and the IC50 (BB30-HNC) was over 2.5 µM. For the same molecule, the IC50 (NOS-1) was over 2.5 µM, the IC50 (LU-134-A) was over 2.5 µM and the IC50 (TE-8) was over 2.5 µM. It also gave an IC50 (CCRF-CEM) of over 2.5 µM and an IC50 (KS-1) of 0.0046 µM.
`Cc1ccc(NC(=O)c2cccc(C(C)(C)C#N)c2)cc1Nc1ccc2ncn(C)c(=O)c2c1` showed an IC50 (NOMO-1) of 1.21 µM, an IC50 (LXF-289 cell line) of over 4 µM and an IC50 (LNCaP-Clone-FGC) of over 4 µM. For the same molecule, the IC50 (8-MG-BA) was over 4 µM, the IC50 (OMC-1) was over 4 µM and the IC50 (Mo) was over 4 µM. It also gave an IC50 (SK-NEP-1) of 0.472 µM, an IC50 (KARPAS-45) of over 4 µM and an IC50 (LS-1034) of over 4 µM. For the same molecule, the IC50 (DOHH-2) was 1.99 µM, the IC50 (HC-1) was over 4 µM and the IC50 (KARPAS-299) was over 4 µM. The IC50 (MHH-NB-11) was over 4 µM, the IC50 (RPMI-8866) was over 4 µM and the IC50 (COLO-668) was over 4 µM. It also gave an IC50 (D-502MG) of 2.26 µM, an IC50 (C8166) of over 4 µM and an IC50 (HCE-T) of over 4 µM. For the same molecule, the IC50 (HuTu80) was 0.983 µM, the IC50 (GCIY) was over 4 µM and the IC50 (CW-2) was over 4 µM. For the same molecule, the IC50 (LS-513) was 0.0741 µM, the IC50 (MHH-PREB-1) was over 4 µM and the IC50 (DJM-1) was over 4 µM. For the same molecule, the IC50 (HCC2218) was over 4 µM, the IC50 (SF-126) was over 4 µM and the IC50 (SW 962) was over 4 µM. For the same molecule, the IC50 (Lu-65) was over 4 µM, the IC50 (KMOE-2) was 0.116 µM and the IC50 (KY821) was over 4 µM. The IC50 (ES5) was over 4 µM, the IC50 (KINGS-1) was over 4 µM and the IC50 (LAN-6) was 0.682 µM. The IC50 (NB6) was over 4 µM, the IC50 (TK-10) was over 4 µM and the IC50 (SK-LMS-1) was over 4 µM. The IC50 (Ramos-2G6-4C10) was over 4 µM, the IC50 (NCI-H69) was over 4 µM and the IC50 (KURAMOCHI) was over 4 µM. The IC50 (EW-1) was over 4 µM, the IC50 (QIMR-WIL) was 3.23 µM and the IC50 (NCI-H747) was 0.506 µM. The IC50 (P30-OHK) was over 4 µM, the IC50 (EKVX) was over 4 µM and the IC50 (NCI-H1155) was over 4 µM. It also gave an IC50 (SNU1) of 0.448 µM, an IC50 (MLMA) of over 4 µM and an IC50 (HH) of over 4 µM. It also gave an IC50 (U-87 MG) of over 4 µM, an IC50 (HOP-62) of over 4 µM and an IC50 (ONS-76) of 0.167 µM. The IC50 (NEC8) was over 4 µM, the IC50 (MSTO-211H) was 3.95 µM and the IC50 (BB30-HNC) was 1.96 µM. It also gave an IC50 (NOS-1) of 0.0927 µM, an IC50 (LU-134-A) of over 4 µM and an IC50 (TE-8) of over 4 µM. The IC50 (CCRF-CEM) was over 4 µM and the IC50 (KS-1) was 0.393 µM.
